Reference: ChEMBL document CHEMBL5465560, “Selectivity Literature for EUbOPEN Chemogenomic Library” (2024)

Key:
[1] = molecular target: Protein kinase C theta type (Homo sapiens, UniProt Q04759); assay: Selectivity interaction (KinomeScan (DiscoverX)) EUB0000311b PRKCQ; details: at 1 µM
[2] = molecular target: T1, Ephrin type-B receptor 3 (Homo sapiens) (UniProt P54753); assay: Selectivity interaction (KinomeScan (DiscoverX)) EUB0000595a EPHB3; details: at 10 µM
T1 sequence (whole entry): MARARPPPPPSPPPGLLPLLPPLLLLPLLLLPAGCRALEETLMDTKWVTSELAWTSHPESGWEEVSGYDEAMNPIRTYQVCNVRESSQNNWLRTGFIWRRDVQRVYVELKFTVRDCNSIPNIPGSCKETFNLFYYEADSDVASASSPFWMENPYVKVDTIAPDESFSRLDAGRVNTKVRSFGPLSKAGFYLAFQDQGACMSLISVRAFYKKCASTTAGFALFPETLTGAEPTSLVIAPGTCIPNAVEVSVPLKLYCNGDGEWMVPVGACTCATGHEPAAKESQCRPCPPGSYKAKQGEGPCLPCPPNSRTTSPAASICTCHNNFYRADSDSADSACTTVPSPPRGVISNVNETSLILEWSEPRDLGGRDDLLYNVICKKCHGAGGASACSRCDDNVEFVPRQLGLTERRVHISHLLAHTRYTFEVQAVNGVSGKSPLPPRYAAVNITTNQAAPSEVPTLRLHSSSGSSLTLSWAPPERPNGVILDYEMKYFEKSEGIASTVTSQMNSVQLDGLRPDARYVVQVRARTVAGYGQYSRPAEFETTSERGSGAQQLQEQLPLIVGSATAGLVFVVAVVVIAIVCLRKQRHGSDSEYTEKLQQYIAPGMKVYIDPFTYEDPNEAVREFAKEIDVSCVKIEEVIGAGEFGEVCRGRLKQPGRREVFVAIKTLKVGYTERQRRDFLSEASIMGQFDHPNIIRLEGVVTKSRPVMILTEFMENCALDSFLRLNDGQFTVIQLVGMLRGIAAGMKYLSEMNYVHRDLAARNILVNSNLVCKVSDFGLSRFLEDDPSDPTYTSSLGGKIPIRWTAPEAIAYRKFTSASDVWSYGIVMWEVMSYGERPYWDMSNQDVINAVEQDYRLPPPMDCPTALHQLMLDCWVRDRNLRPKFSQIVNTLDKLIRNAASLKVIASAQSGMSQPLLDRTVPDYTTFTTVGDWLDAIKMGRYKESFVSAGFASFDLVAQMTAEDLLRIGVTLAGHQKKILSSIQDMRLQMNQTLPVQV

[3] = molecular target: Serine/threonine-protein kinase pim-2 (Homo sapiens, UniProt Q9P1W9); details: at 10 µM
Serine/threonine-protein kinase pim-2, sequence (Q9P1W9 whole entry, looked up): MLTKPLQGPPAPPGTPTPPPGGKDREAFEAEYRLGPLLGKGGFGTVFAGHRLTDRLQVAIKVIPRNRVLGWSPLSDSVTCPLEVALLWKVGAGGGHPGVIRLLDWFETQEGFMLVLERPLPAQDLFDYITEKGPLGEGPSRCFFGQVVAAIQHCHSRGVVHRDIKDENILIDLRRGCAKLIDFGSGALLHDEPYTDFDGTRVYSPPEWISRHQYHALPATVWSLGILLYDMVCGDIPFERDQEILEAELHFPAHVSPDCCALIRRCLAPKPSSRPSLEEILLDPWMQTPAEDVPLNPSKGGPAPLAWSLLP

[4] = molecular target: T2, Cyclin-dependent kinase 11A (Homo sapiens) (UniProt Q9UQ88); details: at 10 µM
T2 sequence (whole entry): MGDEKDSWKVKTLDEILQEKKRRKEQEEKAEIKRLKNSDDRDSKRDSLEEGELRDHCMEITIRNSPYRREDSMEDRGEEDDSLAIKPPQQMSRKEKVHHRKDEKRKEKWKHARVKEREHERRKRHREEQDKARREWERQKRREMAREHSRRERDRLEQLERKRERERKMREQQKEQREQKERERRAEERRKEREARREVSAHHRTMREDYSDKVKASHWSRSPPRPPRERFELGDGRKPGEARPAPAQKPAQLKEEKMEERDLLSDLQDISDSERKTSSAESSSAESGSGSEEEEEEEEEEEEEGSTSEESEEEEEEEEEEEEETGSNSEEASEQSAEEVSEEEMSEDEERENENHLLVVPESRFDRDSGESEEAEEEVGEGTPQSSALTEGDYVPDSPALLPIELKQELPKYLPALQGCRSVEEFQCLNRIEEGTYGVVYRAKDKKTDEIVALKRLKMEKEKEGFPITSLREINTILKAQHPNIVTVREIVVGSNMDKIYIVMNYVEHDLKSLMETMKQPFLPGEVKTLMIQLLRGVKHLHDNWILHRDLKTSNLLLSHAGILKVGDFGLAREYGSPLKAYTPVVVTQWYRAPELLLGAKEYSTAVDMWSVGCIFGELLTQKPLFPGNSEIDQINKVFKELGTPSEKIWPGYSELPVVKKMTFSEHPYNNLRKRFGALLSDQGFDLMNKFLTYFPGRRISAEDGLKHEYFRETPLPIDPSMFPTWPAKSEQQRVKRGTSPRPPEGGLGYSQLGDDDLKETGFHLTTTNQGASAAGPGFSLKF

[5] = molecular target: T3, Dual specificity mitogen-activated protein kinase kinase 6 (Homo sapiens) (UniProt P52564); assay: Selectivity interaction (LanthaScreen Eu Kinase Binding Assay) EUB0001632a MAP2K6; details: at 10 µM
T3 sequence (whole entry): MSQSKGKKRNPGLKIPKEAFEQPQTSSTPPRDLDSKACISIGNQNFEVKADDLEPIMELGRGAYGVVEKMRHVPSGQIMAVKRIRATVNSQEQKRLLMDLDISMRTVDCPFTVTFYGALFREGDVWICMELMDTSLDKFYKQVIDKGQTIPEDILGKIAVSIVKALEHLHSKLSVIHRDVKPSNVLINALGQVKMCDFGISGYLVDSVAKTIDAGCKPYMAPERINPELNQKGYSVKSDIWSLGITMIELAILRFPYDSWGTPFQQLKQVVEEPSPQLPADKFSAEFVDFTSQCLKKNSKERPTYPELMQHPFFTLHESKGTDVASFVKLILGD

Protein kinase C theta type, sequence (Q04759 whole entry, looked up): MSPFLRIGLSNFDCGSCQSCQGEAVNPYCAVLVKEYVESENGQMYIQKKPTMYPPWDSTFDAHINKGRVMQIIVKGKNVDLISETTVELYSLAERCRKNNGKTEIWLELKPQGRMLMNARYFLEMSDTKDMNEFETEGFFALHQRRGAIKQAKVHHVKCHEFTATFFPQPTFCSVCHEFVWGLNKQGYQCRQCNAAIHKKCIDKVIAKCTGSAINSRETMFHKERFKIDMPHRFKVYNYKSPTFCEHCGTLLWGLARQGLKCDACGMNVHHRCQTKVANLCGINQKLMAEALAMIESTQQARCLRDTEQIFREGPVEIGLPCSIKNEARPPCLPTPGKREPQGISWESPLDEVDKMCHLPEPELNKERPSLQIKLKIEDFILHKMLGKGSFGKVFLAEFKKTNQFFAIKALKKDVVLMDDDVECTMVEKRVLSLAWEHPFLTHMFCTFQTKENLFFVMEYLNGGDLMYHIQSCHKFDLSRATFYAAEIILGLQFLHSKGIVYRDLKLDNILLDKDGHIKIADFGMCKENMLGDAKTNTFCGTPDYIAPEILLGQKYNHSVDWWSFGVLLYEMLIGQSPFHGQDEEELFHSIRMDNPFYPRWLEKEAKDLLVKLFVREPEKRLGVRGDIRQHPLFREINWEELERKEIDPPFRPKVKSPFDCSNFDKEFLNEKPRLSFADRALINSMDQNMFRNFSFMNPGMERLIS

Compound `CCc1ccccc1C(=O)Nc1n[nH]c2c(C)c(F)c(C3C(C#N)=C(C)N(C)C(C)=C3C#N)cc12` [BAY-3827] has a % of control [1] of 15%.

Work on `COCC(=O)NC/C=C/c1ccc2ncnc(Nc3ccc(Oc4ccc(C)nc4)c(C)c3)c2c1` [CP-724714] yielded a % of control [2] of 86%.

`Cc1cc([C@@H](C)Nc2ccccc2C(=O)O)c2nc(N3CCOCC3)cc(=O)n2c1` [AZD-6482] was tested, and the % of control [3] was 70% and the % of control [4] was 91%.

For `Cn1cc(-n2cnc3c(NCc4nc5cc(Cl)c(Cl)cc5[nH]4)nc(N4CCOCC4)nc32)cn1`, the % of inhibition [5] was -35%.
